In brackets after ≈: the same amount, converted by molar mass. Where two headings read alike, the source gives them in different places.
Experiments:
[1] = tested on: HepG2; assay: HepG2 growth inhibition; assay type: cell-based; settings: Homo sapiens, HepG2, read-out: human cells, GI50 HepG2
[2] = tested on: CRL-8155; assay: CRL-8155 growth inhibition; assay type: cell-based; settings: Homo sapiens, CRL8155, read-out: human cells, GI50 CRL-8155
[3] = target: Src (Homo sapiens, UniProt P12931); assay: Src tyrosine kinase inhibition; assay type: biochemical
[4] = target: hERG (Homo sapiens, UniProt Q12809)
[5] = physchem; settings: phosphate-buffered saline, pH 6.5, Solubility
[6] = phosphate-buffered saline, pH 6.5
[7] = in vitro; settings: mouse

Sequence of Src (P12931 whole entry, species assumed): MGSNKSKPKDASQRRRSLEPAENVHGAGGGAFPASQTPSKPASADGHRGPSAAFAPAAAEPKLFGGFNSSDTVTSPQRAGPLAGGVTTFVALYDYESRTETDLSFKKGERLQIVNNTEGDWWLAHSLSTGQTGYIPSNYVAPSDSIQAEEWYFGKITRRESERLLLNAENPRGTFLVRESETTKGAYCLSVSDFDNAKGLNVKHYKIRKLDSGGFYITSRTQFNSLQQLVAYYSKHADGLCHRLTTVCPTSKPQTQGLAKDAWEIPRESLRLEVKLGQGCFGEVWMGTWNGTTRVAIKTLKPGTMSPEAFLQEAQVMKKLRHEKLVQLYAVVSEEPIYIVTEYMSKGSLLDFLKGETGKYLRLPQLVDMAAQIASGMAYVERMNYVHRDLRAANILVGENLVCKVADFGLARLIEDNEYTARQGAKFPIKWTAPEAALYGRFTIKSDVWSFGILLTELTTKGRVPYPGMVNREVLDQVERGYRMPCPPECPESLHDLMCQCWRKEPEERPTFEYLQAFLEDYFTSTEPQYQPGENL
Sequence of hERG (Q12809 whole entry): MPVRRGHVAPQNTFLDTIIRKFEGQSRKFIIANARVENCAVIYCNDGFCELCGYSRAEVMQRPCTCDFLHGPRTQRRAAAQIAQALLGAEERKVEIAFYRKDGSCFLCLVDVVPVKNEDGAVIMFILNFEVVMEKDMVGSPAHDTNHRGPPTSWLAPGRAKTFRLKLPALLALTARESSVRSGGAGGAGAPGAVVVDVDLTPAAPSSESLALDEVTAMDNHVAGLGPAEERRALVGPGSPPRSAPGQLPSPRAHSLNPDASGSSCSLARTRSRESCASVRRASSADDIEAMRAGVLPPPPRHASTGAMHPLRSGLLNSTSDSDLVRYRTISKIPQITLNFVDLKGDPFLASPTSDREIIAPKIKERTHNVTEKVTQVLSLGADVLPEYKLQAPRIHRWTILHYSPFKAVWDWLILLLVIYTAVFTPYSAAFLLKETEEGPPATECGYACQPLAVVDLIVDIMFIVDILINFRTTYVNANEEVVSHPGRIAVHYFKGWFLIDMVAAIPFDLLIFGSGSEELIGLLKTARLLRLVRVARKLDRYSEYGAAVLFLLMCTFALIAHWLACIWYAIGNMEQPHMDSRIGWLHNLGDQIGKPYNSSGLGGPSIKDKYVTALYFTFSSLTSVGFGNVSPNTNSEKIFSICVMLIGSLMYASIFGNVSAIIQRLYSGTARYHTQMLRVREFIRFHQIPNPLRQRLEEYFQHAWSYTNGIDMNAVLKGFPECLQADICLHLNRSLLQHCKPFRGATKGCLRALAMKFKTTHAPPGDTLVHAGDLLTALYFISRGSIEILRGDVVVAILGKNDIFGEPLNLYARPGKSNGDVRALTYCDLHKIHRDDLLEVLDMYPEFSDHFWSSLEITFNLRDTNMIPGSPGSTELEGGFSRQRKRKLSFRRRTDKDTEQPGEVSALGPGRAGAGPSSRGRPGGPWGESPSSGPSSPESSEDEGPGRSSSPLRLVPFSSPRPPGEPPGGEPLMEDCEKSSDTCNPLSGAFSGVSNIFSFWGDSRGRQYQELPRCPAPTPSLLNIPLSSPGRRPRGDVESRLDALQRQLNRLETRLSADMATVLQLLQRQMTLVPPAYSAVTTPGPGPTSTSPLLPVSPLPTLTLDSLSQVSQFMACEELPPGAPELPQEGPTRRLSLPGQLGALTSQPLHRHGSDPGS

| SMILES | GI50 [1] | GI50 [2] | IC50 [3] | lower activity against hERG than 1 [4] | solubility [5] | solubility [6] | EC50 [7] |
| --- | --- | --- | --- | --- | --- | --- | --- |
| CCOc1ccc2cc(-c3nn(CC4CNC4)c4ncnc(N)c34)ccc2c1 [Compound 5] | > 10 µM | > 10 µM | > 10 µM | – | – | – | – |
| CCOc1ccc2cc(-c3nn(CC4CN(C)C4)c4ncnc(N)c34)ccc2c1 [Compound 6] | > 10 µM | > 10 µM | > 10 µM | – | – | – | – |
| CCOc1ccc2cc(-c3nn(CC4CCN(C(C)C)CC4)c4ncnc(N)c34)ccc2c1 [Compound 7] | > 10 µM | > 10 µM | > 10 µM | – | – | – | – |
| CCOc1ccc2cc(-c3nn(CC4CCN(C(C)=O)CC4)c4ncnc(N)c34)ccc2c1 [Compound 8] | > 10 µM | > 10 µM | – | – | – | – | – |
| CCOc1ccc2cc(-c3nn(CC4CN(C(C)=O)C4)c4ncnc(N)c34)ccc2c1 [Compound 9] | > 10 µM | > 10 µM | – | – | – | – | – |
| CN1CCC(Cn2nc(-c3ccc4cc(OCC5CC5)ccc4c3)c3c(N)ncnc32)CC1 [Compound 10, 3-(6-(Cyclopropylmethoxy)naphthalen-2-yl)-1-((1-methylpiperidin-4-yl)methyl)-1H-pyrazolo[3,4-d]pyrimidin-4-amine] | > 10 µM | > 10 µM | > 10 µM | – | – | – | – |
| CN1CCC(Cn2nc(-c3ccc4cc(OC5CCC5)ccc4c3)c3c(N)ncnc32)CC1 [Compound 11, 3-(6-Cyclobutoxynaphthalen-2-yl)-1-((1-methylpiperidin-4-yl)methyl)-1H-pyrazolo[3,4-d]pyrimidin-4-amine] | > 10 µM | > 10 µM | > 10 µM | – | – | – | – |
| CN1CCC(Cn2nc(-c3ccc4cc(OC5CC5)ccc4c3)c3c(N)ncnc32)CC1 [Compound 12, 3-(6-Cyclopropoxynaphthalen-2-yl)-1-((1-methylpiperidin-4-yl)methyl)-1H-pyrazolo[3,4-d]pyrimidin-4-amine] | – | > 10 µM | > 10 µM | – | – | – | – |
| COCCOc1ccc2cc(-c3nn(CC4CCN(C)CC4)c4ncnc(N)c34)ccc2c1 [Compound 13, 3-(6-(2-Methoxyethoxy)naphthalen-2-yl)-1-((1-methylpiperidin-4-yl)methyl)-1H-pyrazolo[3,4-d]pyrimidin-4-amine] | > 10 µM | > 10 µM | > 10 µM | – | – | – | – |
| CN1CCC(Cn2nc(-c3ccc4cc(OC5COC5)ccc4c3)c3c(N)ncnc32)CC1 [Compound 14, 1-((1-Methylpiperidin-4-yl)methyl)-3-(6-(oxetan-3-yloxy)naphthalen-2-yl)-1H-pyrazolo[3,4-d]pyrimidin-4-amine] | > 10 µM | > 10 µM | > 10 µM | – | – | – | – |
| CN1CCC(Cn2nc(-c3ccc4cc(OCC(C)(C)O)ccc4c3)c3c(N)ncnc32)CC1 [Compound 16, 1-(6-(4-Amino-1-((1-methylpiperidin-4-yl)methyl)-1H-pyrazolo[3,4-d]pyrimidin-3-yl)naphthalen-2-yloxy)-2-methylpropan-2-ol] | > 10 µM | > 10 µM | > 10 µM | – | – | – | – |
| CCOc1ccc2cc(-c3nn(CC4CCN(C)CC4)c4ncnc(N)c34)ccc2n1 [Compound 17, 3-(2-Ethoxyquinolin-6-yl)-1-((1-methylpiperidin-4-yl)methyl)-1H-pyrazolo[3,4-d]pyrimidin-4-amine] | – | – | > 10 µM | 25 fold | – | – | – |
| CN1CCC(Cn2nc(-c3ccc4nc(OC5CC5)ccc4c3)c3c(N)ncnc32)CC1 [Compound 19, 3-(2-Cyclopropoxyquinolin-6-yl)-1-((1-methylpiperidin-4-yl)methyl)-1H-pyrazolo[3,4-d]pyrimidin-4-amine] | > 10 µM | – | > 10 µM | – | – | – | – |
| CN(C)CC(C)(C)Cn1nc(-c2ccc3nc(OC4CC4)ccc3c2)c2c(N)ncnc21 [Compound 20, 3-(2-Cyclopropoxyquinolin-6-yl)-1-(3-(dimethylamino)-2,2-dimethylpropyl)-1H-pyrazolo[3,4-d]pyrimidin-4-amine] | > 10 µM | > 10 µM | > 10 µM | – | – | – | – |
| CCOc1ccc2cc(-c3nn(CC(C)C)c4ncnc(N)c34)ccc2c1 [Compound 21, 3-(6-Ethoxynaphthalen-2-yl)-1-isobutyl-1H-pyrazolo[3,4-d]pyrimidin-4-amine] | > 10 µM | > 10 µM | > 10 µM | – | – | – | – |
| CC(C)Cn1nc(-c2ccc3cc(OC4CC4)ccc3c2)c2c(N)ncnc21 [Compound 22, 3-(6-Cyclopropoxynaphthalen-2-yl)-1-isobutyl-1H-pyrazolo[3,4-d]pyrimidin-4-amine] | – | > 10 µM | – | – | – | – | – |
| CC(C)Cn1nc(-c2ccc3nc(OC4CC4)ccc3c2)c2c(N)ncnc21 [Compound 23, 3-(2-Cyclopropoxyquinolin-6-yl)-1-isobutyl-1H-pyrazolo[3,4-d]pyrimidin-4-amine] | > 10 µM | > 10 µM | > 10 µM | – | – | – | – |
| CC1(Cn2nc(-c3ccc4cc(OC5CC5)ccc4c3)c3c(N)ncnc32)COC1 [Compound 24, 3-(6-Cyclopropoxynaphthalen-2-yl)-1-((3-methyloxetan-3-yl)methyl)-1H-pyrazolo[3,4-d]pyrimidin-4-amine] | > 10 µM | > 10 µM | > 10 µM | – | – | – | – |
| CC1(Cn2nc(-c3ccc4nc(OC5CC5)ccc4c3)c3c(N)ncnc32)COC1 [Compound 25, 3-(2-Cyclopropoxyquinolin-6-yl)-1-((3-methyloxetan-3-yl)methyl)-1H-pyrazolo[3,4-d]pyrimidin-4-amine] | > 10 µM | > 10 µM | > 10 µM | – | – | – | – |
| CCOc1ccc2cc(-c3nn(CC4CCOCC4)c4ncnc(N)c34)ccc2c1 [Compound 26] | > 10 µM | > 10 µM | > 10 µM | – | – | – | – |
| CCOc1ccc2cc(-c3nn(CC4CCOCC4)c4ncnc(N)c34)ccc2n1 [Compound 27] | > 10 µM | > 10 µM | > 10 µM | – | – | – | – |
| Nc1ncnc2c1c(-c1ccc3cc(OC4CC4)ccc3c1)nn2CC1CCOCC1 [Compound 28, 3-(6-Cyclopropoxynaphthalen-2-yl)-1-((tetrahydro-2H-pyran-4-yl)methyl)-1H-pyrazolo[3,4-d]pyrimidin-4-amine] | > 10 µM | > 10 µM | – | – | – | – | – |
| Nc1ncnc2c1c(-c1ccc3nc(OC4CC4)ccc3c1)nn2CC1CCOCC1 [Compound 29, 3-(2-Cyclopropoxyquinolin-6-yl)-1-((tetrahydro-2H-pyran-4-yl)methyl)-1H-pyrazolo[3,4-d]pyrimidin-4-amine] | > 10 µM | > 10 µM | > 10 µM | – | < 20 µM | 17 µM (≈ 7.08 µg/mL) | – |
| CCOc1ccc2cc(-c3nn(CC(C)(C)O)c4ncnc(N)c34)ccc2c1 [Compound 30, 1-(4-Amino-3-(6-ethoxynaphthalen-2-yl)-1H-pyrazolo[3,4-d]pyrimidin-1-yl)-2-methylpropan-2-ol] | > 10 µM | > 10 µM | > 10 µM | – | – | – | – |
| CCOc1ccc2cc(-c3nn(CC(C)(C)O)c4ncnc(N)c34)ccc2n1 [Compound 31, 1-(4-Amino-3-(2-ethoxyquinolin-6-yl)-1H-pyrazolo[3,4-d]pyrimidin-1-yl)-2-methylpropan-2-ol] | > 10 µM | > 10 µM | > 10 µM | – | – | – | – |
| CC(C)(O)Cn1nc(-c2ccc3nc(OC4CC4)ccc3c2)c2c(N)ncnc21 [Compound 33, 1-(4-Amino-3-(2-cyclopropoxyquinolin-6-yl)-1H-pyrazolo[3,4-d]pyrimidin-1-yl)-2-methylpropan-2-ol] | > 10 µM | > 10 µM | – | – | – | – | 1.33 µM |
| CC(C)(CO)Cn1nc(-c2ccc3nc(OCC(F)(F)F)ccc3c2)c2c(N)ncnc21 [Compound 36, 3-(4-Amino-3-(2-(2,2,2-trifluoroethoxy)quinolin-6-yl)-1H-pyrazolo[3,4-d]pyrimidin-1-yl)-2,2-dimethylpropan-1-ol] | – | – | > 10 µM | – | – | – | – |
| Nc1ncnc2c1c(-c1ccc3cc(OC4CC4)ccc3c1)nn2CC(O)(C(F)(F)F)C(F)(F)F [Compound 37, 2-((4-Amino-3-(6-cyclopropoxynaphthalen-2-yl)-1H-pyrazolo[3,4-d]pyrimidin-1-yl)methyl)-1,1,1,3,3,3-hexafluoropropan-2-ol] | > 10 µM | > 10 µM | > 10 µM | – | – | – | – |

— paper PMC5100899 (Journal of medicinal chemistry, 2016)
